Measurements reported in article PMC9813109, “Phase I dose-escalation study of milademetan in patients with relapsed or refractory acute myeloid leukemia” (International Journal of Hematology, 2022).
“Also recorded” adds a separate entry of the source. Like-named read-outs stand apart in the source and are kept apart here.

Assays:
[1] = Plasma pharmacokinetics (validated HPLC/MS, noncompartmental analysis); format: in vivo, human; conditions: for Cmax / AUC(0-t) / Tmax / half-life / AUC(0-inf): human, plasma, oral
Experimental: Milademetan concentrations were determined using a validated HPLC/MS method. The lower limit of quantification was 0.500 ng/mL. Noncompartmental analysis was used to calculate the PK parameters from milademetan plasma concentrations. In addition, the Phoenix WinNonlin 8.1 software (Certara, Princeton, NJ, USA) was used for PK analysis. In addition to descriptive statistics, the geometric mean and geometric coefficient of variation were used to describe the PK parameters. All analyses were conducted using SAS® software (version 9.4; SAS Institute Inc., Cary, NC, USA). The time courses of mean plasma milademetan concentrations on days 1 and 14 of cycle 1 (linear scale) in the QD 14/28-day schedule were used for pharmacokinetic analysis. The best response was measured as CR, CRh, CRi, or PR. For efficacy analysis, a waterfall plot of the best percent change from baseline blast count in bone marrow aspirate on the QD 14/28-day schedule was drawn to assess the blast count reduction. In addition, line plots of individual serum MIC-1 levels were drawn in the QD 14/28-day schedule for the pharmacodynamics analysis set.

[2] = tested on: R/R AML (blast count in bone marrow aspirate); test: Efficacy assessment: best response and bone marrow blast count; format: in vivo, human; conditions: for Best response: Not applicable: SD < 3 months was deemed not applicable
From the text: Bone marrow and peripheral blood results were used to assess the antitumor effect of milademetan. AML response criteria were defined as shown in Supplementary Table 1. A morphologic leukemia-free state (MLFS) was defined as bone marrow blasts < 5% in the absence of blasts with Auer rods and the absence of extramedullary leukemia. The presence/absence of hematological recovery or blood transfusion was not considered. Stable disease (SD) was defined as an absence of CR, CR with incomplete hematologic recovery (CRi) or partial hematologic recovery (CRh), partial remission (PR), or MLFS, provided that the criteria for the progressive disease were not met. SD had to last at least 3 months (assessed as SD more than thrice in a row) after initiating milademetan treatment. SD < 3 months was deemed not applicable. The best-measured response was defined as the best overall response (all time points after the start of study treatment until the end of treatment). The composite CR (CRc) duration was defined as the time between when the criteria for […] first met and when a relapse was first confirmed. In addition to descriptive statistics, the geometric mean and geometric coefficient of variation were used to describe the PK parameters. All analyses were conducted using SAS® software (version 9.4; SAS Institute Inc., Cary, NC, USA). The time courses of mean plasma milademetan concentrations on days 1 and 14 of cycle 1 (linear scale) in the QD 14/28-day schedule were used for pharmacokinetic analysis. The best response was measured as CR, CRh, CRi, or PR. For efficacy analysis, a waterfall plot of the best percent change from baseline blast count in bone marrow aspirate on the QD 14/28-day schedule was drawn to assess the blast count reduction. In addition, line plots of individual serum MIC-1 levels were drawn in the QD 14/28-day schedule for the pharmacodynamics analysis set.

Structure (SMILES): CC1(C)CCC2(CC1)N[C@@H](C(=O)N[C@@H]1CC[C@@H](C(N)=O)OC1)[C@H](c1ccnc(Cl)c1F)[C@]21C(=O)Nc2cc(Cl)ccc21 [milademetan]
- AUCinf ([1]; Day 1 of cycle 1, 90 mg/day, mean (SD), two patients excluded): 13,700 (4,100) ng h/mL
- Mean accumulation ratios based on AUC24h ([1]; Day 14, dose range tested (90-160 mg)): 1.40–1.90
- Ctrough ([1]; Day 14 of cycle 1, 90 mg/day, mean (SD)): 422 (147) ng/mL
- Ctrough ([1]; Day 14 of cycle 1, 120 mg/day, mean (SD)): 635 (533) ng/mL
- Ctrough ([1]; Day 14 of cycle 1, 160 mg/day, mean (SD)): 769 (221) ng/mL
- Increase in Cmax and AUC with dose ([1]; dose range tested, single and multiple dosing): increased linearly with milademetan dose; also recorded: linear and dose-proportional
- Cmax ([1]; 90 mg/day, Day 1 of cycle 1, 90 mg/day, mean (SD)): 653 ng/mL
- AUC(0-t) ([1]; 90 mg/day, Day 1 of cycle 1, 90 mg/day, mean (SD), two patients excluded, read-out: AUC24h): 8640 ng·h/mL
- AUC(0-t) ([1]; 90 mg/day, Day 1 of cycle 1, 90 mg/day, mean (SD), read-out: AUC8h): 3170 ng·h/mL
- AUC(0-t) ([1]; 90 mg/day, Day 1 of cycle 1, 90 mg/day, mean (SD), read-out: AUClast): 8060 ng·h/mL
- Tmax ([1]; 90 mg/day, Day 1 of cycle 1, 90 mg/day, median (minimum, maximum), read-out: Tmax): 4.45 h
- Cmax ([1]; 90 mg/day, Day 14 of cycle 1, 90 mg/day, mean (SD)): 1090 ng/mL
- AUC(0-t) ([1]; 90 mg/day, Day 14 of cycle 1, 90 mg/day, mean (SD), read-out: AUC8h): 6220 ng·h/mL
- Tmax ([1]; 90 mg/day, Day 14 of cycle 1, 90 mg/day, median (minimum, maximum), read-out: Tmax): 3.02 h
- Cmax ([1]; 120 mg/day, Day 1 of cycle 1, 120 mg/day, mean (SD)): 1010 ng/mL
- AUC(0-t) ([1]; 120 mg/day, Day 1 of cycle 1, 120 mg/day, mean (SD), one patient excluded, read-out: AUC24h): 12100 ng·h/mL
- AUC(0-t) ([1]; 120 mg/day, Day 1 of cycle 1, 120 mg/day, mean (SD), read-out: AUC8h): 4940 ng·h/mL
- AUC(0-t) ([1]; 120 mg/day, Day 1 of cycle 1, 120 mg/day, mean (SD), read-out: AUClast): 11300 ng·h/mL
- Tmax ([1]; 120 mg/day, Day 1 of cycle 1, 120 mg/day, median (minimum, maximum), read-out: Tmax): 3.13 h
- Cmax ([1]; 120 mg/day, Day 14 of cycle 1, 120 mg/day, mean (SD)): 1680 ng/mL
- AUC(0-t) ([1]; 120 mg/day, Day 14 of cycle 1, 120 mg/day, mean (SD), read-out: AUC8h): 10000 ng·h/mL
- Tmax ([1]; 120 mg/day, Day 14 of cycle 1, 120 mg/day, median (minimum, maximum), read-out: Tmax): 2.98 h
- Cmax ([1]; 160 mg/day, Day 1 of cycle 1, 160 mg/day, mean (SD)): 1380 ng/mL
- AUC(0-t) ([1]; 160 mg/day, Day 1 of cycle 1, 160 mg/day, mean (SD), two patients excluded, read-out: AUC24h): 15000 ng·h/mL
- AUC(0-t) ([1]; 160 mg/day, Day 1 of cycle 1, 160 mg/day, mean (SD), read-out: AUC8h): 6560 ng·h/mL
- AUC(0-t) ([1]; 160 mg/day, Day 1 of cycle 1, 160 mg/day, mean (SD), read-out: AUClast): 14900 ng·h/mL
- Tmax ([1]; 160 mg/day, Day 1 of cycle 1, 160 mg/day, median (minimum, maximum), read-out: Tmax): 2.54 h
- Cmax ([1]; 160 mg/day, Day 14 of cycle 1, 160 mg/day, mean (SD)): 2710 ng/mL
- AUC(0-t) ([1]; 160 mg/day, Day 14 of cycle 1, 160 mg/day, mean (SD), read-out: AUC8h): 15300 ng·h/mL
- Tmax ([1]; 160 mg/day, Day 14 of cycle 1, 160 mg/day, median (minimum, maximum), read-out: Tmax): 3.03 h
- half-life ([1]; Day 1 of cycle 1, 90 mg/day, mean (SD), two patients excluded, read-out: t1/2 (converted)): 15.9 h
- AUC(0-inf) ([1]; Day 1 of cycle 1, 120 mg/day, mean (SD), one patient excluded): 18600 ng·h/mL
- half-life ([1]; Day 1 of cycle 1, 120 mg/day, mean (SD), one patient excluded, read-out: t1/2 (converted)): 14.1 h
- AUC(0-inf) ([1]; Day 1 of cycle 1, 160 mg/day, mean (SD), two patients excluded): 22700 ng·h/mL
- half-life ([1]; Day 1 of cycle 1, 160 mg/day, mean (SD), two patients excluded, read-out: t1/2 (converted)): 14.6 h
- half-life ([1]; across doses, read-out: Mean half-life (converted)): ~15 h
- Tmax ([1]; across doses, read-out: Median Tmax): 3 to 4 h
- Best response: Morphologic leukemia-free state ([2]; 90 mg/day (n = 4)): 0 (0.0) n, %
- Best response: Progressive disease ([2]; 90 mg/day (n = 4)): 1 (25.0) n, %
- Best response: Stable disease ([2]; 90 mg/day (n = 4)): 1 (25.0) n, %
- Best response: Not applicable ([2]; 90 mg/day (n = 4)): 2 (50.0) n, %
- Best response: Morphologic leukemia-free state ([2]; 120 mg/day (n = 5)): 1 (20.0) n, %
- Best response: Progressive disease ([2]; 120 mg/day (n = 5)): 1 (20.0) n, %
- Best response: Stable disease ([2]; 120 mg/day (n = 5)): 0 (0.0) n, %
- Best response: Not applicable ([2]; 120 mg/day (n = 5)): 3 (60.0) n, %
- Best response: Morphologic leukemia-free state ([2]; 160 mg/day (n = 3)): 1 (33.3) n, %
- Best response: Progressive disease ([2]; 160 mg/day (n = 3)): 0 (0.0) n, %
- Best response: Stable disease ([2]; 160 mg/day (n = 3)): 0 (0.0) n, %
- Best response: Not applicable ([2]; 160 mg/day (n = 3)): 2 (66.7) n, %
- Patients with a ≥ 50% reduction in baseline blast count in the bone marrow aspirate ([2]; 12 patients): 33.3%
- CR, CRh, CRi, or PR ([2]; 12 patients, 90, 120 or 160 mg): None of the patients
- MLFS, patients ([2]; 12 patients, TP53 wild at baseline): 16.7%
- Best response: Morphologic leukemia-free state ([2]; Total (n = 12)): 2 (16.7) n, %
- Best response: Progressive disease ([2]; Total (n = 12)): 2 (16.7) n, %
- Best response: Stable disease ([2]; Total (n = 12)): 1 (8.3) n, %
- Best response: Not applicable ([2]; Total (n = 12)): 7 (58.3) n, %
